row,SMILES,melting point [°C]
1,CC(C)(C)C(=O)C(Br)C(c1ccc(Cl)cc1Cl)S(=O)(=O)c1ccccc1 (configuration not stated),135 to 136
2,COc1ccc(-c2cc3cc(F)c(F)cc3[nH]2)cc1NS(=O)(=O)c1cccc(C#N)c1,239 to 242
3,COc1ccc2c(c1[N+](=O)[O-])CN(C(=O)C(F)(F)F)CC(=O)N2C,71 to 74
4,OCCNCc1nnc2n1-c1ccc(Cl)cc1C(c1ccccc1)=NC2,162 to 164
5,CCCC12CCC(=O)C=C1c1c(cc(OC)c(Cl)c1Cl)C2Br (configuration not stated),132 to 134
6,CC(C)C(=O)N(C(=O)OC(C)(C)C)C(CC(N)C(=O)OCc1ccccc1)C(N)=O (configuration not stated),112 to 113
7,CNc1nc(CCN2CCC(Nc3nc4ccccc4n3Cc3ccc(F)cc3)CC2)c(C)s1,182
8,COc1ccc(-c2ccnc3c(C(=O)c4cccs4)cnn23)cc1NC(=O)CC(C)C,192 to 194
9,CC(C)=C1C(=O)N(c2ccc(O)cc2)C(=O)/C1=C(\C)c1cc(C)oc1C,206 to 208
10,CS(=O)(=O)n1cc(C2CCN(S(=O)(=O)N3CCCC[C@@H]3C(=O)NO)CC2)c2cc(C#N)ccc21,143 to 144
11,CCC(=S)c1ccc(NS(C)(=O)=O)c(Oc2ccc(F)cc2F)c1,74 to 76
12,CCOCCCCC(=S)c1ccc(C)cc1,62 to 63.5
13,Cn1c(-c2ccc(Br)cc2)c(OCCOc2ccc(C=C3SC(=O)NC3=O)cc2)c(=O)c2ccccc21,151 to 154
14,COc1c(N2CC(C)C(N)C(C)(C)C2)c(F)c(N)c2c(=O)c(C(=O)O)cn(C3CC3)c12 (configuration not stated),248 to 252
15,CNC(=O)c1ccc(C=CC(=O)NCC(=O)N(C)c2ccc(C)c(CO)c2C)cc1,261 to 263
16,CCCCCCNC(=S)NN=C(CCCCl)c1ccccc1,42 to 44
17,O=c1[nH]c2cc(-n3cnc4c3CCCC4)c([N+](=O)[O-])cc2[nH]c1=O,> 300
18,Nc1nc2ccc(OCC(F)(F)C(F)(F)F)cc2s1,147
19,O=C(O)CC1SCCOC1=O (configuration not stated),96 to 98
20,CCOC(=O)c1c(N)n(C)c2ccccc12,132 to 134
21,CSc1cc(S(F)(F)(F)(F)F)ccc1C#N,101 to 102
22,O=C(O)C1=CS[C@@H]2[C@@H]([C@H](O)c3cn4c(n3)SCC4)C(=O)N12,152
23,Cc1nnc2n1-c1sc(Cl)cc1C(c1ccccc1F)=NC2,187 to 189
24,CCCCNC(=O)Oc1ccc(C(O)(CC)c2cccc(C(F)(F)F)c2)c(OC(=O)NCCCC)c1 (configuration not stated),110 to 111
25,CCN(CC)CCn1cc2c(c1)-c1ccc(Cl)cc1C(c1ccccc1Cl)=NC2,130 to 131
26,CC1(C)CCCN(CC2(O)CCNCC2)C1,48 to 52
27,COC(C)(OC)C(C#N)=Cc1ccccc1,45 to 46
28,CCCc1c(-c2cc(=O)c3c(O)c(CCC)c(OCC4=COC(C)(C)O4)cc3o2)ccc(OC)c1O,148
29,CCn1nc(OCCCc2ccc(OCCOC)cc2Oc2ncc(C(F)(F)F)cc2Cl)cc1CCC(=O)O,101 to 103

# Now from value to molecule:
row,melting point [°C],SMILES
1,131,CCOC(=O)N1CCc2c(nc3ccccc3c2C)C(Cl)C1 (configuration not stated)
2,100 to 101,O=C1c2ccccc2S(=O)(=O)N1CSc1nnc(SCCN2CCCCC2)s1
3,199 to 200,COc1cc2c(=O)n(Cc3ccc([N+](=O)[O-])cc3)c3cc(OC)c(OC)cc3c2cc1OC
4,59 to 60,COC(=O)c1ccc(/C=C/Cc2cc3c(cc2C)CCC(C)(C)CC3)cc1
5,145 to 147,O=C(O)Cc1cccc2c(=O)cc(-c3ccc(F)c(F)c3)oc12
6,192 to 194,Cc1nnc2ccc(-c3ccc(Cl)cc3)cn12
7,82,N#Cc1ccccc1Sc1ccc(Cl)cc1
8,149 to 151,CCOC(=O)CC[C@H](NC(=O)c1ccc(CN(C=O)CC2CNc3nc(NC(=O)C(C)(C)C)nc(O)c3C2)cc1)C(=O)OCC (some centres not stated)
9,150 to 153,COc1c(Cl)ccc(-c2cc(N)c(Cl)c(C(=O)NOCc3ccc(F)cc3)n2)c1F
10,165 to 168,COc1ccc(Nc2nc(Cl)nc(Cl)n2)cc1
11,164 to 167,CN(C)CC#Cc1ccc(C(CC2CCCC2)C(=O)Nc2nccs2)cc1 (configuration not stated)
12,113 to 116,O=C(O)c1cccc(C(=O)NC(Cc2c[nH]c3ccccc23)C(=O)CCc2cc(C(F)(F)F)cc(C(F)(F)F)c2)c1 (configuration not stated)
13,92 to 93,O=c1oc2cccnc2n1CCN1CCN(c2cccc(C(F)(F)F)c2)CC1
14,114 to 115,O=C(O)[C@H](Cc1cccc(OCC(F)(F)C(F)F)c1)[C@@H](O)c1ccc(F)cc1 (racemic)
15,213 to 219,N=C(N)c1ccc(C(=O)Nc2ccc(Nc3cc(-c4cccc5c4oc4ccccc45)ncn3)cc2)cc1
16,146 to 147,O=C(O)Cc1cccc(C(=O)c2ccc(OCc3ccc4ccccc4n3)cc2)c1
17,266 to 267,O=C(O)c1[nH]c2cc(Cl)cc(Cl)c2c1N(Cc1ccccc1)C(=O)c1ccccc1
18,254 to 255,CSc1ccc(-n2cnc3ccc(-c4nnc(N)o4)cc32)cc1
19,100 to 102,CC(O)(CSc1ccc(S(=O)(=O)c2ccccc2)cc1)C(F)(F)F (configuration not stated)

row,melting point [°C],SMILES
1,83 to 84,COC(c1ccccc1)C1CCCCCC(Cc2ccccc2)C1=O (configuration not stated)
2,231 to 232,O=C(Nc1cccnc1)N1CCN(c2nccc(-c3ccc(F)c(F)c3)n2)CC1
3,167 to 169,O[C@@H]1CCN(c2ccc3nnn(Cc4ccc5ncccc5c4)c3n2)C1
4,159 to 160,COc1cc(C(F)(F)F)nn1-c1ccc(NC(=O)c2snnc2C)cc1
5,127 to 133,O=C(/C=C/c1cccc([N+](=O)[O-])c1)N1CCN(C(=O)c2cc(C(F)(F)F)cc(C(F)(F)F)c2)[C@H](Cc2c[nH]c3ccccc23)C1
6,212 to 215,CC(CO)(CO)NCc1c2ccc3ccccc3c2cc2ccsc12
7,122 to 123,Cc1nnsc1C(=O)Nc1ccc(-n2nc(C(F)(F)F)cc2OC(F)F)cc1
8,89,COc1cc(C)ccc1S(=O)(=O)OCC(=O)c1ccccc1
9,243 to 245,Cc1nc2cc(F)ccc2c(=O)n1C1CCC(=O)NC1=O (configuration not stated)
10,163 to 165,CC(C)c1ccccc1Sc1c(O)cc(-c2ccc(OCc3ccccc3)cc2)oc1=O
11,210 to 213,Oc1ccc(-c2cc3cc(O)cc(CC(F)(F)F)c3o2)cc1
12,116 to 118,CC=Cc1cc(OC)cc2cc(-c3ccc(OC)cc3)oc12
13,171 to 177,CN(Cc1sc2c(=O)c(C(=O)NCc3ccc(Cl)cc3)cn(C)c2c1CNS(C)(=O)=O)C[C@@H](O)c1ccccn1
14,149 to 150,Nc1cc(CCC(=O)N2CCCCC2)ccc1O
15,127 to 130,Nc1nc2ccc(NC(=O)CNC(=O)[C@@H](Cc3ccccc3)NS(=O)(=O)Cc3ccccc3)cc2s1
16,107 to 109,COCCOc1cc(N(C)S(=O)(=O)c2ccccn2)c2[nH]c(C3=NCC(CC(=O)O)S3)cc2c1 (configuration not stated)
17,183 to 185,O=S(=O)(Nc1ccc2c(OCc3csc(C4COc5ccccc5O4)n3)cccc2c1)C(F)(F)F (configuration not stated)
18,203 to 204,Nc1cccc(C(=O)O)c1NCc1ccccc1Cl
19,198 to 199,Cc1nc(NC(=O)c2ccccc2)sc1C(=O)NCc1cccc(Cl)c1
